Reference: patent US6248305A, “Boron heterocycle steroid mimics and associated pharmaceutical compositions and methods of use” (SRI International, priority 2000, dated 2001)

Assays:
[1] = test system: MCF-7 cells; assay: Antiproliferative assay, MCF-7 cells, alamar Blue; assay type: cell-based
Description: MCF-7 cells were obtained from the American Type Culture Collection (ATCC, Rockville, Md.). Exponentially growing cells were plated (96-well plates) in MEM (minimal essential medium) containing NaHCO3, CCD (charcoal-coated dextran)-stripped 10% FCS (fetal calf serum), and glycine. Cultures were incubated at 37° C. for 1 day, then treated with target by replacing the medium with 100 μL MEM containing supplements and target (3 wells at each of 5 concentrations). The relative effect of each concentration was compared to that of β-estradiol (positive control) by the alamar Blue™ assay (Biosource International),in which the dye is reduced by cellular mitochondrial enzymes to a soluble fluorophore with an intensity directly proportional to cell number. After cultures were incubated with target, alamar Blue™ diluted to 20% in MEM was added (100 μL/well) and cells were incubated for about 4 h, until a color change indicated sufficient amounts of reduced dye for quantitation. Relative cell number was evaluated directly from the plates by fluorimetry (560 nm excitation, 590 nm detection) on a Millipore 2300 CytoFluor. The concentration at which 50% effectiveness is seen (EC50) was calculated from statistically significant, reproducible effects. Statistical analysis was performed using JMP software (SAS Institute).

[2] = test system: estrogen receptor; settings: cited from earlier work
[3] = concentration 10^-5 (unit not given)
[4] = concentration 10^-6 (unit not given)
[5] = concentration 10^-7 (unit not given)
[6] = concentration 10^-8 (unit not given)
[7] = concentration 10^-9 (unit not given)

| Molecule | % Inhibition [1, 3] [%] | % Inhibition [1, 4] [%] | % Inhibition [1, 5] [%] | % Inhibition [1, 6] [%] | % Inhibition [1, 7] [%] | affinity for the estrogen receptor [2] |
| --- | --- | --- | --- | --- | --- | --- |
| O=C1OB2c3ccc(O)cc3C=NN2c2ccccc21 [Compound 4, 1,2-dihydro-1,6-dihydroxy-2-(2-carboxyphenyl)-2,3,1-benzodiazaborine lactone] | 13 | 4 | 2 | 6 | 0 | – |
| OB1c2ccc(O)cc2C=NN1c1ccccn1 [Compound 11, 1,2-dihydro-1,6-dihydroxy-2-(6-pyridinyl)-2,3,1-benzodiazaborine] | 55 | 10 | 8 | 8 | 5 | – |
| COc1cccc(N2N=Cc3cc(O)ccc3B2O)n1 [Compound 15, 1,2-dihydro-1,6-dihydroxy-2-(2-methoxy-6-pyridinyl)-2,3,1-benzodiazaborine] | 62 | 3 | 0 | 0 | 0 | – |
| CC/C(=C(\c1ccccc1)c1ccc(OCCN(C)C)cc1)c1ccccc1 [tamoxifen, reference compound] | 95 | 54 | 29 | 5 | 0 | – |
| Estrone and Estradiol-17β, 3-carboranylmethyl Ethers | – | – | – | – | – | 0.5 |
